Assay results as given in the supplement of paper PMC7840683.

Tested on: HepaRG
Experiment: LDH release cytotoxicity, % of total lysis control; higher = more cytotoxic
Settings: 48 h
Procedure, shortened: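 HepaRG cells from a single lot were plated on collagen I-coated 96-well plates and treated in duplicate for 48 h with eight-point half-log series of test chemicals, starting at 100 µM, in serum-free induction medium containing 0.5% DMSO. Total lysis wells were given 0.1% Triton X. LDH released into 50 µL of spent medium was measured as resorufin fluorescence with CytoTox-ONE on a Tecan Safire. Percent cytotoxicity was normalized to on-plate vehicle and total lysis controls and then averaged across duplicates.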

O=C1OC(=O)C2C3C=CC(C3)C12 (stereo not given) [2-Norbornene-5,6-dicarboxylic anhydride]
Settings	LDH release cytotoxicity [%]
0.03162 µM	-1.12
0.1 µM	-0.887
0.3162278 µM	-1.06
1 µM	-1.3
3.16228 µM	-0.802
10 µM	-1.42
31.6228 µM	-0.266
100 µM	1.32

O=c1ccc2ccccc2o1 [Coumarin]
Settings	LDH release cytotoxicity [%]
0.03162 µM	-1.09
0.1 µM	-0.766
0.3162278 µM	-0.788
1 µM	-1.992
3.16228 µM	-1.12
10 µM	-2.38
31.6228 µM	-0.666
100 µM	6.17

Cc1c(C(=O)O)c(O)cc2c1C(=O)c1c(O)c(C3OC(CO)C(O)C(O)C3O)c(O)c(O)c1C2=O (stereo not given) [Carminic acid]
Settings	LDH release cytotoxicity [%]
0.03162 µM	-11.2
0.1 µM	-11.08
0.3162278 µM	-10.7
1 µM	-11.1
3.16228 µM	-11.2
10 µM	-11
31.6228 µM	-9.8
100 µM	-10.4

CCCCCCC(C=O)=Cc1ccccc1 [2-(Phenylmethylene)octanal]
Settings	LDH release cytotoxicity [%]
0.03162 µM	-1.15
0.1 µM	-2.83
0.3162278 µM	-1.02
1 µM	-1.91
3.16228 µM	-1.53
10 µM	-0.899
31.6228 µM	-0.688
100 µM	-0.668

COP(=O)(NC(C)=O)SC (stereo not given) [Acephate]
Settings	LDH release cytotoxicity [%]
0.03162 µM	-0.866
0.1 µM	-0.804
0.3162278 µM	-0.558
1 µM	-0.625
3.16228 µM	-0.512
10 µM	0.394
31.6228 µM	0.786
100 µM	1.92

CSC(C)=NOC(=O)N(C)SN(C)C(=O)ON=C(C)SC [Thiodicarb]
Settings	LDH release cytotoxicity [%]
0.03162 µM	0.264
0.1 µM	0.37
0.3162278 µM	-0.268
1 µM	0.546
3.16228 µM	0.811
10 µM	1.07
31.6228 µM	1.06
100 µM	1.18

Nc1cc(Cl)cc(C(=O)O)c1Cl [Chloramben]
Settings	LDH release cytotoxicity [%]
0.03162 µM	0.283
0.1 µM	-1.57
0.3162278 µM	-0.351
1 µM	-0.882
3.16228 µM	-1.46
10 µM	-0.217
31.6228 µM	-0.618
100 µM	0.291

CCCCCCCCCCCCCN1CC(C)OC(C)C1 (stereo not given) [Tridemorph]
Settings	LDH release cytotoxicity [%]
0.0322552 µM	-2.04
0.102 µM	-2.33
0.322552 µM	-1.56
1.02 µM	-2.46
3.2255232 µM	-1.14
10.2 µM	-0.844
32.2552 µM	-0.534
102 µM	71.8

Cc1c(C)c2c(c(C)c1O)CCC(C)(COc1ccc(CC3SC(=O)NC3=O)cc1)O2 (stereo not given) [Troglitazone]
Settings	LDH release cytotoxicity [%]
0.03162 µM	-0.878
0.1 µM	-0.342
0.3162278 µM	-1.04
1 µM	-0.379
3.16228 µM	-0.376
10 µM	-1.1
31.6228 µM	8.12
100 µM	62.4

CN(C)C(=O)Nc1ccc(Cl)cc1 [Monuron]
Settings	LDH release cytotoxicity [%]
0.031623 µM	-1.01
0.1 µM	-1.82
0.316228 µM	-2.23
1 µM	-2.41
3.16228 µM	-2.49
10 µM	-1.39
31.6228 µM	-0.555
100 µM	0.589

CSC(C)(C)CN=O [Aldicarb oxime]
Settings	LDH release cytotoxicity [%]
0.03162 µM	-1.16
0.1 µM	-1.16
0.3162278 µM	-0.361
1 µM	0.251
3.16228 µM	-0.674
10 µM	0.43
31.6228 µM	0.225
100 µM	0.822

CC1CC(C)C(=O)C(C(O)CC2CC(=O)NC(=O)C2)C1 (stereo not given) [Cycloheximide]
Settings	LDH release cytotoxicity [%]
0.03162 µM	-0.96
0.1 µM	-0.691
0.3162278 µM	-1.8
1 µM	-1.99
3.16228 µM	-1.19
10 µM	3.47
31.6228 µM	24
100 µM	61.9

Nc1ccc(Cl)cc1N [4-Chloro-1,2-diaminobenzene]
Settings	LDH release cytotoxicity [%]
0.03162 µM	-0.924
0.1 µM	-0.99
0.3162278 µM	-1.38
1 µM	-1.19
3.16228 µM	-0.451
10 µM	-0.557
31.6228 µM	-0.208
100 µM	-0.194

Cc1ccccc1O [o-Cresol]
Settings	LDH release cytotoxicity [%]
0.03162 µM	-1.5
0.1 µM	-1.22
0.3162278 µM	-1.45
1 µM	-2.213
3.16228 µM	-1.71
10 µM	-0.686
31.6228 µM	-0.0502
100 µM	12.99

NS(=O)(=O)C(F)(F)C(F)(F)C(F)(F)C(F)(F)C(F)(F)C(F)(F)C(F)(F)C(F)(F)F [Perfluorooctanesulfonamide]
Settings	LDH release cytotoxicity [%]
0.03162 µM	-1.99
0.1 µM	-2.06
0.3162278 µM	-2.69
1 µM	-1.57
3.16228 µM	-1.2
10 µM	-4.2
31.6228 µM	41.1
100 µM	86.8

CCSC(=O)N(CC(C)C)CC(C)C [Butylate]
Settings	LDH release cytotoxicity [%]
0.03162 µM	-1.39
0.1 µM	-1.51
0.3162278 µM	-0.761
1 µM	-1.26
3.16228 µM	-0.761
10 µM	-0.00901
31.6228 µM	-0.0439
100 µM	-0.00901

CCCCC(CC)COC(=O)c1ccccc1C(=O)OCC(CC)CCCC (stereo not given) [Di(2-ethylhexyl) phthalate]
Settings	LDH release cytotoxicity [%]
0.01581 µM	-1.27
0.05 µM	-1.74
0.1581139 µM	-1.47
0.5 µM	-0.91
1.5811388 µM	-1.48
5 µM	-1.76
15.8114 µM	-0.407
50 µM	-0.778

Clc1ccc(C(c2ccc(Cl)cc2)C(Cl)Cl)cc1 [p,p'-DDD]
Settings	LDH release cytotoxicity [%]
0.03162 µM	-1.25
0.1 µM	-1.27
0.3162278 µM	-2.03
1 µM	-1.62
3.16228 µM	-0.977
10 µM	-1.35
31.6228 µM	-1.4
100 µM	0.26

Oc1ccc2ccccc2c1N=Nc1ccccc1 [C.I. Solvent Yellow 14]
Settings	LDH release cytotoxicity [%]
0.031623 µM	-0.466
0.1 µM	-3.7
0.316228 µM	-3.44
1 µM	-2.66
3.16228 µM	-0.781
10 µM	-0.446
31.6228 µM	-2.17
100 µM	-3.46

CCCCC(CC)CN1C(=O)C2C3C=CC(C3)C2C1=O (stereo not given) [Octylbicycloheptenedicarboximide]
Settings	LDH release cytotoxicity [%]
0.03162 µM	0.282
0.1 µM	-0.366
0.3162278 µM	-0.0268
1 µM	-1.18
3.16228 µM	-0.584
10 µM	-0.999
31.6228 µM	-1.23
100 µM	8.34
